According to ChEMBL document CHEMBL5360534, “Synthetic α-glucosidase inhibitors as promising anti-diabetic agents: Recent developments and future challenges” (Eur J Med Chem, 2023):
pIC50, pKi: −log10 of the molar value.

Key:
[1] = Inhibition of rat intestinal alpha-glucosidase
[2] = Inhibition of rat intestinal alpha-glucosidase assessed as inhibition constant
[3] = biological target: T1, Alpha-glucosidase (Saccharomyces cerevisiae S288c, UniProt P53341+P38158+P07265); assay: Inhibition of Saccharomyces cerevisiae alpha-glucosidase using p-nitrophenyl-alpha-D-glucopyranoside as substrate preincubated with compound followed by substrate addition and measured after 30 mins by absorbance based analysis; assay type: protein assay
[4] = biological target: T1, Alpha-glucosidase; assay: Inhibition of Saccharomyces cerevisiae alpha-glucosidase using p-nitrophenyl-alpha-D-glucopyranoside as substrate preincubated for 5 mins followed by substrate addition and measured after 30 mins by absorbance based microplate reader analysis; assay type: protein assay
[5] = system: Saccharomyces cerevisiae; assay: (§1) Potency index, ratio of acarbose IC50 to test compound IC50 for inhibition of Saccharomyces cerevisiae alpha-glucosidase type I using p-nitrophenyl-alpha-D-glucopyranoside as substrate preincubated for 10 mins followed by substrate addition and measured after 30 mins by absorbance based analysis; settings: time 40.0 min
[6] = Inhibition of Saccharomyces cerevisiae alpha-glucosidase type I using p-nitrophenyl-alpha-D-glucopyranoside as substrate preincubated for 10 mins followed by substrate addition and measured after 30 mins by absorbance based analysis
[7] = biological target: T1, Alpha-glucosidase; assay: Non-competitive inhibition of Saccharomyces cerevisiae alpha-glucosidase using p-nitrophenyl-alpha-D-glucopyranoside as substrate assessed as inhibition constant preincubated for 15 mins followed by substrate addition and measured after 30 mins by multiplate reader analysis; assay type: protein assay
[8] = biological target: T1, Alpha-glucosidase; assay: Inhibition of Saccharomyces cerevisiae alpha-glucosidase using p-nitrophenyl-alpha-D-glucopyranoside as substrate preincubated for 15 mins followed by substrate addition and measured after 30 mins by multiplate reader analysis; assay type: protein assay
[9] = biological target: T1, Alpha-glucosidase; assay: Inhibition of Saccharomyces cerevisiae alpha-glucosidase using p-nitrophenyl-alpha-D-glucopyranoside as substrate incubated for 15 mins by UV-visible spectrophotometric analysis; assay type: protein assay
[10] = biological target: T1, Alpha-glucosidase; assay: Inhibition of Saccharomyces cerevisiae alpha-glucosidase using p-nitrophenyl-alpha-D-glucopyranoside as substrate preincubated for 10 mins followed by substrate addition and measured after 20 mins by absorbance based microplate reader analysis; assay type: protein assay
[11] = biological target: T1, Alpha-glucosidase; assay: Non-competitive inhibition of Saccharomyces cerevisiae alpha-glucosidase using p-nitrophenyl glucopyranoside as substrate assessed as inhibition constant preincubated for 15 mins followed by substrate addition and measured after 20 mins by spectrophotometric analysis; assay type: protein assay
[12] = biological target: T1, Alpha-glucosidase; assay: Inhibition of Saccharomyces cerevisiae alpha-glucosidase using p-nitrophenyl glucopyranoside as substrate preincubated for 10 mins followed by substrate addition and measured after 20 mins by spectrophotometric analysis; assay type: protein assay
[13] = biological target: T1, Alpha-glucosidase; assay: Inhibition of Saccharomyces cerevisiae alpha-glucosidase using p-nitrophenyl-[…]-D-glucopyranoside as substrate preincubated for 15 mins followed by substrate addition and measured after 15 mins by absorbance based microplate reader analysis; assay type: protein assay
[14] = Inhibition of alpha-glucosidase (unknown origin); parameters: species or system Homo sapiens
[15] = species: Rattus norvegicus; assay: Anti-hyperglycemic activity against STZ-induced hyperglycemic rat model assessed as reduction in blood glucose level relative to control; assay type: functional; parameters: scale not given: the % may be the effect or the level left
[16] = Inhibition of alpha-glucosidase (unknown origin) using p-nitrophenyl-alpha-D-glucopyranoside as substrate preincubated for 20 mins followed by substrate addition and measured after 30 mins by UV-visible spectrophotometric analysis; parameters: species or system Homo sapiens
[17] = biological target: Alpha-glucosidase (Saccharomyces cerevisiae S288c) (UniProt P53341+P38158+P07265); assay: as §1, with “cerevisiae recombinant” for “cerevisiae”, “alpha-glucosidase” for “alpha-glucosidase type I”, “15” for “10”, “microplate reader” for “absorbance”; assay type: protein assay; settings: time 45.0 min
[18] = biological target: T1, Alpha-glucosidase; assay: Inhibition of Saccharomyces cerevisiae recombinant alpha-glucosidase using p-nitrophenyl-alpha-D-glucopyranoside as substrate preincubated for 15 mins followed by substrate addition and measured after 30 mins by microplate reader based analysis; assay type: protein assay
[19] = Inhibition of alpha-glucosidase (unknown origin) using p-nitrophenyl-alpha-D-glucopyranoside as substrate preincubated for 10 mins followed by substrate addition and measured after 20 mins by absorbance based analysis; parameters: species or system Homo sapiens
[20] = species: Homo sapiens; assay: Potency index, ratio of acarbose IC50 to test compound IC50 for inhibition of alpha-glucosidase (unknown origin) using p-nitrophenyl-alpha-D-glucopyranoside as substrate preincubated for 10 mins followed by substrate addition and measured after 20 mins by absorbance based analysis; settings: time 30.0 min
[21] = (§2) Mixed-type inhibition of alpha-glucosidase (unknown origin) using p-nitropheny-alpha-D-glucopyranoside as substrate assessed as inhibition constant by measuring intercept versus drug/substrate concentration preincubated for 5 mins followed by substrate addition and measured after 10 mins by absorbance based microplate reader analysis; parameters: species or system Homo sapiens
[22] = Inhibition of alpha-glucosidase (unknown origin) using p-nitrophenyl-alpha-D-glucopyranoside as substrate preincubated for 5 mins followed by substrate addition and measured after 10 mins by absorbance based microplate reader analysis; parameters: species or system Homo sapiens
[23] = as §2, with “secondary plot of 1/V” for “intercept”, “drug” for “drug/substrate”; parameters: species or system Homo sapiens
[24] = biological target: T1, Alpha-glucosidase; assay: Competitive inhibition of Saccharomyces cerevisiae alpha-glucosidase using p-nitrophenyl glucopyranoside as substrate assessed as inhibition constant preincubated for 15 mins followed by substrate addition and measured after 20 mins by spectrophotometric analysis; assay type: protein assay
[25] = biological target: T1, Alpha-glucosidase; assay: Inhibition of Saccharomyces cerevisiae alpha-glucosidase using p-nitrophenyl-alpha-D-glucopyranoside as substrate preincubated for 20 mins followed by substrate addition and measured after 30 mins by spectrophotometric analysis; assay type: protein assay
[26] = biological target: T1, Alpha-glucosidase; assay: Un-competitive inhibition of Saccharomyces cerevisiae alpha-glucosidase using p-nitrophenyl glucopyranoside as substrate assessed as inhibition constant preincubated for 15 mins followed by substrate addition and measured after 20 mins by spectrophotometric analysis; assay type: protein assay
[27] = biological target: T1, Alpha-glucosidase; assay: Competitive inhibition of Saccharomyces cerevisiae alpha-glucosidase using p-nitrophenyl-alpha-D-glucopyranoside as substrate assessed as inhibition constant preincubated for 10 mins followed by substrate addition and measured after 20 mins by absorbance based analysis; assay type: protein assay
[28] = biological target: T1, Alpha-glucosidase; assay: Inhibition of Saccharomyces cerevisiae alpha-glucosidase using p-nitrophenyl-alpha-D-glucopyranoside as substrate preincubated for 10 mins followed by substrate addition and measured after 20 mins by absorbance based analysis; assay type: protein assay
[29] = Inhibition of alpha-glucosidase (unknown origin) using 4-nitrophenyl-[…]-D-glucopyranoside as substrate preincubated for 20 mins followed by substrate addition and measured after 1 hr by absorbance based analysis; parameters: species or system Homo sapiens
[30] = Inhibition of alpha-glucosidase (unknown origin) using p-NPG as substrate assessed as inhibition constant preincubated with compound followed by substrate addition and measured by absorbance based analysis; parameters: species or system Homo sapiens
[31] = biological target: T1, Alpha-glucosidase; assay: Inhibition of Saccharomyces cerevisiae alpha-glucosidase using pNPG as substrate by spectroscopic analysis; assay type: protein assay
[32] = Inhibition of alpha-glucosidase (unknown origin) using PNP glycoside as substrate preincubated for 30 mins followed by substrate addition and measured after 1 min by spectrophotometric analysis; parameters: species or system Homo sapiens
[33] = biological target: T1, Alpha-glucosidase; assay: Inhibition of Saccharomyces cerevisiae alpha-glucosidase using pNPG as substrate; assay type: protein assay
[34] = biological target: T1, Alpha-glucosidase; assay: Competitive inhibition of Saccharomyces cerevisiae alpha-glucosidase using pNPG as substrate assessed as inhibition constant; assay type: protein assay
[35] = biological target: T1, Alpha-glucosidase; assay: Inhibition of Saccharomyces cerevisiae alpha-glucosidase using p-nitrophenyl glucopyranoside as substrate preincubated for 10 mins followed by substrate addition and measured after 30 mins by absorbance based microplate reader analysis; assay type: protein assay
[36] = Competitive inhibition of alpha-glucosidase (unknown origin) assessed as inhibition constant; parameters: species or system Homo sapiens

With N[C@H]1[C@H](O)[C@@H](O)[C@H](O)[C@@H](CO)[C@@H]1CCO the pIC50 [1] was 5.24 and the pKi [2] was 5.20.
CC1=NN(c2ccc([N+](=O)[O-])cc2)C(=O)/C1=C/c1cn(-c2ccccc2)nc1-c1cc2cc(Br)ccc2oc1=O showed an IC50 [3] of 2.1 µM.
COc1cccc(NC(=O)Cn2nc3c(c2C)N(C)Sc2ccccc2-3)c1 showed an IC50 [4] of 5.8 µM.
Cc1nn(-c2ccc(Nc3cccc(Cl)c3)nn2)c(C)c1[N+](=O)[O-] showed a Ratio IC50 [5] of 1.98 and a pIC50 [6] of 4.72.
In the case of Oc1ccc(Br)cc1-c1nc2cc(Cl)ccc2s1, the Ki [7] was 16.03 µM and the IC50 [8] was 22.1 µM.
OC[C@H]1O[C@H](OCc2cn(C[C@H]3O[C@@H]4O[C@H]5[C@H](O)[C@@H](O)[C@@H](O[C@H]6[C@H](O)[C@@H](O)[C@@H](O[C@H]7[C@H](O)[C@@H](O)[C@@H](O[C@H]8[C@H](O)[C@@H](O)[C@@H](O[C@H]9[C@H](O)[C@@H](O)[C@@H](O[C@H]%10[C@H](O)[C@@H](O)[C@@H](O[C@H]%11[C@H](O)[C@@H](O)[C@@H](O[C@H]3[C@H](O)[C@H]4O)O[C@@H]%11Cn3cc(CO[C@H]4O[C@H](CO)[C@@H](O)[C@H](O)[C@@H]4O)nn3)O[C@@H]%10Cn3cc(CO[C@H]4O[C@H](CO)[C@@H](O)[C@H](O)[C@@H]4O)nn3)O[C@@H]9Cn3cc(CO[C@H]4O[C@H](CO)[C@@H](O)[C@H](O)[C@@H]4O)nn3)O[C@@H]8Cn3cc(CO[C@H]4O[C@H](CO)[C@@H](O)[C@H](O)[C@@H]4O)nn3)O[C@@H]7Cn3cc(CO[C@H]4O[C@H](CO)[C@@H](O)[C@H](O)[C@@H]4O)nn3)O[C@@H]6Cn3cc(CO[C@H]4O[C@H](CO)[C@@H](O)[C@H](O)[C@@H]4O)nn3)O[C@@H]5Cn3cc(CO[C@H]4O[C@H](CO)[C@@H](O)[C@H](O)[C@@H]4O)nn3)nn2)[C@@H](O)[C@@H](O)[C@@H]1O gave an IC50 [9] of 32 µM.
For O=C1CS/C(=N\N=C\c2ccc(OS(=O)(=O)c3ccccc3[N+](=O)[O-])cc2)N1, the IC50 [10] was 42.8 µM.
In the case of N#CC1=C(N)Oc2c(c(=O)[nH]c3c2ccc2ccccc23)C1c1ccc(Br)cc1 (centres undefined), the Ki [11] was 28 µM and the IC50 [12] was 15.7 µM.
For O=C1Nc2ccc([N+](=O)[O-])cc2C1(c1c[nH]c2ccc(O)cc12)c1c[nH]c2cccc(O)c12 (centres undefined), the IC50 [13] was 67 µM.
In the case of COc1ccc(-n2c(SCC(=O)N/N=C/c3ccc(O)cc3)nc3ccccc3c2=O)cc1, the pIC50 [14] was 3.25 and the Activity [15] was 43.07%.
With CCOC(=O)c1c(C)n(C2CC2)c2ccc(OCc3nnc(-c4ccc(O)cc4)[nH]3)cc12 the pIC50 [16] was 4.52.
For Cn1cc(-c2nnc(-c3ccc(C(c4cn(Cl)c5ccccc45)c4cn(Cl)c5ccccc45)cc3)o2)c2ccccc21, the Ratio IC50 [17] was 400 and the IC50 [18] was 2 µM.
N#CC(c1c[nH]c2ccc(Br)cc12)c1c[nH]c2ccc(Br)cc12 gave a pIC50 [19] of 5.12 and a Ratio IC50 [20] of 30.
O=C1CNC(=S)N1C(=O)c1cc([N+](=O)[O-])cc([N+](=O)[O-])c1 gave a pKi [21] of 3.81, a pIC50 [22] of 4.30 and a pKi [23] of 4.47.
With O=C(Cn1cc(CNC(=O)c2c3ccccc3nc3ccccc23)nn1)Nc1cccc(Br)c1 the Ki [24] was 78 µM and the IC50 [12] was 80.3 µM.
For CC(C)=C(C)CSc1nnc(-c2cc(OCC(F)(F)F)ccc2OCC(F)(F)F)o1, the IC50 [25] was 46.01 µM.
With N#CC1=C(N)Oc2c(c(=O)[nH]c3c2ccc2ccccc23)C1c1ccc(Cl)cc1 (centres undefined) the IC50 [12] was 10.3 µM and the Ki [26] was 11 µM.
For Cc1ccc(NC(=O)Oc2ccc(-c3nc4ccccn4c3NC(C)(C)C)cc2)cc1, the Ki [27] was 71 µM and the IC50 [28] was 75.6 µM.
Compound Oc1ccccc1-c1cc(-c2ccc(C(F)(F)F)cc2)n(-c2ccccc2)n1 has a pIC50 [29] of 3.94.
In the case of COc1c(C(=O)/C=C/c2ccc(Br)cc2)c(OC)c(C(=O)/C=C/c2ccc(Br)cc2)c(OC)c1C(=O)/C=C/c1ccc(Br)cc1, the pKi [30] was 8.41.
Brc1cccc(CSc2nnc(-c3ccc4nc(-c5ccccc5)c(-c5ccccc5)nc4c3)o2)c1 gave an IC50 [31] of 0.02847 µM.
With C(=N\Nc1nc(-c2ccc(-c3ccccc3)cc2)cs1)/c1cccc2ccccc12 the pIC50 [32] was 5.21.
For COc1cc(-c2[nH]c3ccccc3c2/C=N/NC(=S)Nc2ccccc2)cc(OC)c1OC, the IC50 [33] was 27 µM and the Ki [34] was 27 µM.
With Cc1cccc(NC(=O)CSc2nnc(Cc3c[nH]c4ccccc34)o2)c1 the IC50 [35] was 9.37 µM.
Work on Cn1cnnc1SC(=O)c1ccc(-c2ccccc2Cl)o1 yielded a pIC50 [14] of 5.66 and a pKi [36] of 5.29.
